Measured values reported in US9757428B2, “Designed peptides for tight junction barrier modulation” (University of Rochester, priority 2013, dated 2017).
Where no end group is shown, it is not given here.

Assays:
16HBE TJs [1] = assay: Transepithelial electrical resistance (TER) of 16HBE tight junction barrier, peptides applied apically; format: cell-based, Human; conditions: for effect of unrelated peptides on TER: 2-12 μM; for drop in TER: 2.4 μM peptide; for recovery of barrier function (TER) after peptide removal: 0.024 to 12 μM, washout and further 24 h incubation; for barrier disruption by labeled peptides, measured by decreased TER: representative experiment (n=2)
Protocol: Before use, peptide fibrils were prepared in sterile, filtered phosphate buffered saline containing 0.12% Pluronic F-127® by sonication at 55° C. for 20 minutes. Peptide concentrations were determined by BCA assay (Pierce). 20× peptide stocks were prepared in 0.12% pluronic F-127/PBS, then diluted 20× into phosphate buffer, PBS or DMEM containing 1% heat-inactivated fetal bovine serum and incubated at 37° C. for 18-24 hours before cell exposure or biophysical analysis, maintaining a constant surfactant concentration (0.006% Pluoronic® F127) for vehicle and peptide samples.
(§1) Human bronchial epithelial cells (16HBE) were grown on collagen-coated polystyrene in DMEM containing 10% heat inactivated fetal bovine serum, 10 mM HEPES, penicillin, streptomycin, and amphotericin with fresh media every 2-3 days. Cells were plated at the indicated density and grown for the indicated period. Peptides were diluted 20× into DMEM (Gibco #31053 containing 2 mM L-glutamine but lacking phenol red) containing 1% heat-inactivated fetal bovine serum and incubated at 37° C. for 18 hours before exposure. Pluronic F-127 concentrations (0.006% in cell culture media) were consistent between vehicle controls and peptide-containing samples. Cells were acclimated to the same media for 18 hours before peptide exposure.
(§2) For transepithelial electrical resistance (TER) and permeability experiments, the results of which are shown in FIGS. 4A-4B, respectively, cells were plated at a density of 75,000 per 0.33 cm^2 transwell (Corning TW, […], polyester) and grown for 5-6 days before acclimation/peptide exposure. TER measurements were taken with chopstick electrodes using a World Precision Instruments voltohmeter, and are expressed as the measured (cellular resistance—resistance of a TW insert with no cells)/surface area of the TW insert. TER was measured before peptide exposure (time=0) and at the indicated time points thereafter. After the 24 hour measurement, a control TW was lysed with 1% Triton X-100. For permeability flux assay, 1/10 volume of 0.2% sodium fluorescein or a mixture of 40 kD FITC-dextran (600 μg/mL final apical concentration) and Alexafluor®-568 labeled Synagis monoclonal antibody was added to the apical chamber and cells were incubated at 37° C. for 30 minutes or 18 hours. Synagis monoclonal antibody was labeled with Alexafluor®-568-succinimidyl ester according to the manufacturer's instructions, unreacted fluorophor removed using centrifugal filtration, and labeled antibody resuspended in PBS containing FITC-labeled 40 kD dextran. Fluorescence in the basolateral media was read in a Tecan M1000 fluorescence plate reader using Greiner μ-clear bottom 384-well plates (λex=494 nm and λem=512 nm for fluorescein and FITC-dextran and λex=578 nm and λem=605 nm for Alexafluor®-568 using a 10 nm slit width). Error is presented as the standard error of the mean, and significance relative to the vehicle control indicated where P<0.05 using a two-tailed t-test. For TER and fluorescein permeability experiments, n=8. For barrier recovery after peptide washout and FD-40 and Alexafluor®-labeled monoclonal antibody (“AF-mAb”) permeability, n=4.
Human bronchial epithelial cells (16HBE) were used to model TJ barrier function. 16HBE cells develop a TJ barrier (transepithelial electrical resistance, TER=800-1500 Ω*cm^2 in 10% heat-inactivated calf serum) that persists for 14 days. 16HBE cells serve as a more robust epithelial TJ barrier model than primary human keratinocytes, which achieve varying degrees of terminal differentiation (e.g. TJ barrier function) and this declines within 24 hours. In the low serum media used for peptide exposure, 16HBE cells achieved 350-500 Ω*cm^2 TER which was stable for 3-4 days. Cell surface expression of Cldn1, Cldn4, Ocln, and ZO-1 were consistently observed by immunofluorescence staining (FIGS. 2A-2B).

[2] = for comparison; cited from earlier work
16HBE cells = assay: WST1 cytotoxicity assay in 16HBE cells; format: cell-based, Human; conditions: for WST1 metabolism (cytotoxicity) of equilibrated peptides: 16HBE sub-confluent, 0.024-12 μM, 1, 4, 12 or 24 hour exposure; for concentration of freshly diluted peptide at which cytotoxicity was observed (WST1): 16HBE, stocks diluted and added without incubation, 12 h exposure
Protocol: For cytotoxicity measurements, cells were plated with a density of 7,500 per well in a 96-well plate and grown for one day before acclimation in DMEM containing 1% heat-inactivated fetal bovine serum. Cells were exposed to vehicle or peptide for 4, 12 or 24 hours. Control cells were lysed with 1% Triton X-100 for 15 minutes as a negative control. 10× WST1 stock (Clontech) was added to each well, and cells incubated for 12 minutes at 37° C. Media was removed and WST1 absorbance immediately read on a Perkin Elmer UV/Vis plate reader (WST1 A450−background A620). Error is presented as the standard error of the mean, and significance relative to the untreated control indicated (P<0.05). For cytotoxicity experiments, n=4. Representative data is presented.

[3] = tested on: Cldn1 and Ocln localization in 16HBE cultures; assay: Immunofluorescence of TJ proteins (Cldn1, Ocln) and labeled peptides in 16HBE cultures; format: cell-based, Human; conditions: for Cldn1 and Ocln localization: 12 hours after exposure; for co-localization of labeled peptide with endogenous Cldn1: 2.4 μM, 4 hours exposure
Protocol: For immunohistochemical labeling, cells were plated at a density of 1.2×10^5 cells per 1.2 cm^2 coverslip in a 12-well plate and cultured in DMEM containing 10% heat-inactivated fetal bovine serum for 4-5 days. One day before peptide exposure, media was changed to DMEM/1% serum. Cells were exposed to peptide for 4 or 12 hours at 37° C. Cover slips were washed three times with PBS containing calcium (Gibco), fixed in cold methanol and blocked with 1% bovine serum albumin before staining Fluorophor was conjugated to propargyl-glycine labeled peptides using a ClickIt EdU kit according to the manufacturer's instructions (omitting cell exposure to EdU). For immunofluorescent staining, cells were incubated for one hour with primary antibodies (1:500 polyclonal anti-claudin 1 antibody and 1:400 monoclonal anti-occludin), washed with PBS and stained with Alexafluor®-488 anti-rabbit and Alexafluor®-568 anti-mouse secondary antibodies (1:1000). […] Coverslips were mounted in Vectastain containing DAPI and imaged on an Olympus BX60 fluorescence microscope. Cldn1 and Ocln images were taken using SPOT software with no further digital manipulation.

[4] = tested on: influenza hemagglutinin (HA); assay: Intranasal immunization with influenza hemagglutinin (HA); conditions: mice; for serum antibody titers to HA: day 18, 28 and 35; for HA-specific antibodies (IgG and IgA) in bronchial lavage: day 48
Protocol: Immunization experiments with influenza hemagglutinin were carried out as follows. Mice (4 mice per group) were treated in the nasal cavity with vehicle alone (0.006% Pluronic F127 in saline), vehicle plus influenza hemagglutinin (HA), or vehicle plus HA plus a permeabilizing agent (peptides 1A or 2A, or semen-derived enhancer of virus infection (SEVI)). Antibody titers to HA in serum were assessed at day 18, 28, and 35 after treatment, and HA-specific IgG and IgA were determined in bronchial lavage at day 48 post treatment.

16HBE TJs [5] = assay: Permeability flux assay (sodium fluorescein, FITC-dextran FD-40, labeled Synagis mAb) across 16HBE cultures; format: cell-based, Human; conditions: for increase in FITC-dextran 40 kDa (FD-40) permeability / increase in fluorescein (0.4 kDa) permeability: 24 hours exposure, relative to vehicle
Protocol: as §1, §2

nasal cavity = assay: Luciferase permeability experiment in mouse nasal cavity; format: in vivo; conditions: mice, intranasal peptide, luciferase applied after 12 or 24 hours
Protocol: Luciferase permeability experiments were carried out as follows. […] After 12 or 24 hours, a solution of 10 micrograms luciferase was applied. Mice were then imaged at various time points to determine the amount of luciferase remaining in the nasal cavity.

[6] = tested on: Caco-2, HEK-293, and rat perineural TJ barriers; conditions: Caco-2, HEK-293, rat perineural in vivo; cited from earlier work
[7] = tested on: T84 (transplantable human carcinoma) cells; conditions: cited from earlier work

Aβ40: unrelated peptide tested in the same concentration range [reference compound]
effect of unrelated peptides on TER (16HBE TJs [1]; 16HBE): did not decrease TER

Aβ42: Amyloid Beta-Peptide 1-42 [reference compound]
critical concentration (Cr) [2]: about 1 μM
TJ disruption (16HBE TJs [1]; 2.4 μM): disrupt TJs, but to a lesser extent than peptides 1a and 2a

FKFEFKFE-NH2 [(FKFE)2, unrelated peptide tested in the same concentration range, reference compound]
effect of unrelated peptides on TER (16HBE TJs [1]; 16HBE): did not decrease TER

H-SILTGVSTLDQSLKQLSNFSQAVSTQSSR-NH2 [Peptide 2a]
WST1 metabolism (cytotoxicity) of equilibrated peptides (16HBE cells): No alterations in WST1 metabolism
concentration of freshly diluted peptide at which cytotoxicity was observed (WST1) (16HBE cells): 200 nM
Cldn1 and Ocln localization [3]: disturbed
serum antibody titers to HA [4]: trend of enhancement
HA-specific antibodies (IgG and IgA) in bronchial lavage [4]: trend of enhancement
drop in TER (16HBE TJs [1]; 16HBE, 24 hours): 80±2.4%
decrease in TER (16HBE TJs [1]; 16HBE, 12 μM peptide, 24 hours): 92±1.6%
recovery of barrier function (TER) after peptide removal (16HBE TJs [1]; 16HBE): barrier function recovers
enhancement of labeled therapeutic antibody (Synagis, 168 kD) penetration (16HBE TJs [5]; 2.4 μM peptide): 4.9±0.4 fold
increase in FITC-dextran 40 kDa (FD-40) permeability (16HBE TJs [5]; 2.4 μM peptide): 25.3±1.6 fold
increase in fluorescein (0.4 kDa) permeability (16HBE TJs [5]; 2.4 μM peptide): 5.6±0.4 fold
enhancement of labeled therapeutic antibody (Synagis, 168 kD) penetration (16HBE TJs [5]; 12 μM peptide): 5.6±0.9 fold
increase in FITC-dextran 40 kDa (FD-40) permeability (16HBE TJs [5]; 12 μM peptide): 30.5±3.0 fold
increase in fluorescein (0.4 kDa) permeability (16HBE TJs [5]; 12 μM peptide): 16.4±2.2 fold

H-SSVSQSTGQIQSKVFDSLLNLSSTLQATR-NH2 [Peptide 1a]
WST1 metabolism (cytotoxicity) of equilibrated peptides (16HBE cells): No alterations in WST1 metabolism
concentration of freshly diluted peptide at which cytotoxicity was observed (WST1) (16HBE cells): 1200 nM
Cldn1 and Ocln localization [3]: disturbed
serum antibody titers to HA [4]: trend of enhancement
HA-specific antibodies (IgG and IgA) in bronchial lavage [4]: trend of enhancement
drop in TER (16HBE TJs [1]; 16HBE, 24 hours): 65.9±6.9%
time to statistically significant (P<0.05) decrease in TER (16HBE TJs [1]; 16HBE, 12 μM peptide): ≤ 8 h
recovery of barrier function (TER) after peptide removal (16HBE TJs [1]; 16HBE): barrier function recovers
lowest concentration giving a statistically significant (P<0.05) decrease in TER (16HBE TJs [1]; 16HBE, by 24 hours): 240 nM
enhancement of labeled therapeutic antibody (Synagis, 168 kD) penetration (16HBE TJs [5]; 2.4 μM peptide): 2.5±0.2 fold
increase in FITC-dextran 40 kDa (FD-40) permeability (16HBE TJs [5]; 2.4 μM peptide): 11.2±0.9 fold
increase in fluorescein (0.4 kDa) permeability (16HBE TJs [5]; 2.4 μM peptide): 4.1±0.9 fold
enhancement of labeled therapeutic antibody (Synagis, 168 kD) penetration (16HBE TJs [5]; 12 μM peptide): 3.2±0.4 fold
increase in FITC-dextran 40 kDa (FD-40) permeability (16HBE TJs [5]; 12 μM peptide): 16.8±1.9 fold
increase in fluorescein (0.4 kDa) permeability (16HBE TJs [5]; 12 μM peptide): 6.7±1.3 fold
luciferase lost from the nasal cavity (nasal cavity): trend of higher amounts of luciferase lost from the nasal cavity

Rat Cldn1 (53-81, C54,64S) peptide: rat claudin-1 peptide with Cys to Ser, of Zwanziger et al. (SSVSQSTGQIQSKVFDSLLNLNSTLQATR; UniProt P56745 53-81, looked up, variant C54S C64S)
concentration disrupting TJ barriers [6]: 200 to 300 µM

SILTGVSTLDQSLKQLSNFSQAVSTQSSR [Peptide 2b, labeled scrambled peptide 2 with N-terminal biotin-N-propargyl glycine tag]
co-localization of labeled peptide with endogenous Cldn1 [3]: co-localize with endogenous Cldn1
barrier disruption by labeled peptides, measured by decreased TER (16HBE TJs [1]; 16HBE): cause disruption of barrier

SSVSQSTGQIQSKVFDSLLNLSSTLQATR [Peptide 1b, labeled peptide 1 with N-terminal biotin-N-propargyl glycine tag]
co-localization of labeled peptide with endogenous Cldn1 [3]: co-localize with endogenous Cldn1
barrier disruption by labeled peptides, measured by decreased TER (16HBE TJs [1]; 16HBE): cause disruption of barrier

rat Cldn1 (53-80) peptide: rat claudin-1 extracellular loop peptide of Mrsny et al. (SCVSQSTGQIQCKVFDSLLNLNSTLQAT; UniProt P56745 53-80, looked up, fragment)
concentration able to disrupt intact TJs [7]: 200 µM
concentration shown to inhibit calcium-induced TJ formation [7]: 25 µM
